Counter-ions that a name gives are not always drawn. Like-named read-outs stand apart in the source and are kept apart here.
Key:
Taq polymerase [1] = experiment: PCR inhibition, SK38/39 system, 115-mer product on ethidium bromide gel or autoradiograph; assay type: biochemical
Description: (§1) Generally, PCR was carried out using 175-200 μM dNTPS (deoxyribonucleoside 5'-triphosphates) and 0.5 to 1.0 μM primers. Five units/100 μl of Taq polymerase were used. PCR reactions were overlaid with 30-100 μl light mineral oil. A typical PCR cycle for HIV amplification using a Perkin-Elmer Cetus DNA Thermal Cycler (Part No. N8010150) was: denaturation at 95° C. for 30 seconds; annealing at 55° C. for 30 seconds; and extension at 72° C. for 1 minute. PCR cycles were normally carried out in this manner for 35 cycles followed by 7 minutes at 72° C.
In other cases, amplification of HIV sequences was performed using primer pair SK-38 (SEQ ID NO:5) and SK-39 (SEQ ID NO:6) and 115-mer (SEQ ID NO:7) as target to produce a 115-mer product.
Where agarose gel electrophoresis was used, the PCR products were fractionated by electrophoresis through a 3% Nusieve/1% agarose gel in TBE buffer. Electrophoresis was typically carried out in a constant voltage of 8-10 V/cm. Following agarose gel electrophoresis, individual bands were, in most cases, visualized by ethidium bromide staining. This involved staining the agarose gel with 1 μg/ml ethidium bromide in TBE for 30 minutes followed by destaining the agarose gel with TBE for 30 minutes.
The chemical reaction was performed as follows. Two aliquots (30 mg/aliquot) of sodium borohydride (NaBH4) were added at ten minute intervals to 1 ml of 200 μM hematin (Sigma) in 1M Tris (pH 8.0) under argon in the dark. The pH was adjusted to 6.0 between additions. At the end of the reaction (20 minutes) the pH was adjusted to 1.0 and then neutralized to pH 7.0. Six aliquots (5 μl) of the product of the reaction corresponding to different amounts of reacted hematin (37.5 μM, 7.5 μM, 1.5 μM, 0.3 μM, 0.06 μM, 0.012 μM) were added to standard (20 μl) PCR reactions in different tubes using the SK38/39 system (see above). Three standard control reactions were run in separate tubes: i) a no nucleic acid target control; ii) a no primer control; and iii) a positive control (no hematin). In addition, unreacted hematin was added to four different tubes in different amounts (50 μM, 5 μM, 0.5 μM, and 0.05 μM). PCR was carried out for 30 cycles. The PCR products were thereafter electrophoresed (agarose) and visualized with ethidium bromide staining (FIG. 2A, lanes 1-13). The three above-named control reactions were electrophoresed in lanes 1, 2 and 3, respectively. […] The unreacted hematin tubes (lanes 4-7) show no product until hematin is present at a very low concentration (0.05 μM, lane 7), at which point product is evident. […] Indeed, product is evident where 1.5 μM reacted hematin or less was present. […] A score (i.e., % maximum intensity of a positive control) was given to each band. An OD unit of 1.0 corresponds to 100% of maximum intensity. After examination of a plot of the estimated OD units to the concentration of hematin (expressed in the log scale) in these PCR reactions, it is clear that approximately a thirty-fold concentration difference was achieved (reacted to unreacted).
The photochemical reaction was performed as follows. Stock biliverdin (Sigma, 5 mM) was diluted in solution (50 mM Tris pH 7.8) to a final concentration of 200 μM. Two aliquots (300 μl) were then made. One aliquot was left unreacted. The other aliquot was exposed to ultraviolet radiation from an HRI-100 for 16 hours using the industry standard, F8T5BL hot cathode dual bipin lamps. Thereafter, both the unirradiated and irradiated materials were added (5 μl) to standard (20 μl) PCR reactions in different tubes using the SK38/39 system (see above) and 10^9 copies of 115-mer target. Three standard control reactions were run in separate tubes: i) a no nucleic acid target control; ii) a positive control (no biliverdin); and iii) a no Taq control. PCR was carried out for thirty (30) cycles. The PCR products were thereafter electrophoresed (agarose) and visualized with ethidium bromide staining (FIG. 3A, lanes 1-5). […]

Taq polymerase [2] = conditions: cited from earlier work; for inhibitory concentration in PCR: final concentration
[3] = system: DNA ligase from mouse erythroleukemia (MEL) cells; conditions: incubation with hemoglobin; cited from earlier work
Taq polymerase [4] = assay type: biochemical; design: key to Effect of cofactors on serum albumin: BSA / Effect of cofactors on transferrin: Bovine Transferrin: The presence of product bands ("+") indicated that the cofactor was, in conjunction with transferrin or serum albumin, able to overcome inhibition
Description: as §1
In some instances below, amplification of human histocompatibility (HLA) Class II genes was performed using primer pair GH26 (SEQ ID NO:2) and GH27 (SEQ ID NO:3) and human placental DNA to produce a 242-mer product (SEQ ID NO: 4). These primers and other primers are described in PCR Protocols: A Guide To Methods and Applications, Innis, M. A. et al. eds., pp. 261-271 (1990)).
Whole blood was prepared according to Mode III (see FIG. 1). Whole blood samples (100 μl) were lysed with protease K (0.5 mg/ml, 55° C. for 1 hour). The enzyme was inactivated by heating (95°-100°C., 10 minutes). Four sets of reactions were then set up involving the addition of interfering reagent to the protease lysate: 1) transferrin with 10 mM sodium bicarbonate; 2) transferrin with 20 mM sodium bicarbonate; 3) serum albumin with 10 mM sodium bicarbonate; and 4) serum albumin with no cofactor. These reaction were performed at room temperature for thirty minutes using a concentration range for transferrin and serum albumin (10, 25, 50, 75, 100, 150, 200 and 250 μg per 20 μl PCR rxn). PCR was then set up using the primer pair GH26/GH27 to produce a 242-mer product (see above). Two standard control reactions were run in separate tubes: i) a no nucleic acid target control; and 2) a positive control (human placental DNA). Four additional control lanes were run: 1) no inhibitor treatment (two lanes); 2) 10 mM sodium bicarbonate only (one lane); and 3) 50 μg transferrin only (one lane); and 4) transferrin with 10 mM sodium bicarbonate (two lanes). PCR was carried out for 35 cycles. The PCR products were thereafter electrophoresed (agarose) and visualized with ethidium bromide staining. The two above-named control reactions were electrophoresed in lanes 9 and 10 of FIG. 16A, respectively, as well as lanes 17 and 18 of FIG. 16B, respectively. In FIG. 16C, the positive control is in lane 1 and the negative control is in lane 2.
Whole blood was prepared according to Mode III (see FIG. 1). Whole blood samples (20 μl) were lysed with protease K (0.5 mg/ml, 55° C. for 1 hour). The enzyme was inactivated by heating (95°-100° C., 10 minutes). Reactions were then set up involving the addition of bovine transferrin or serum albumin with various cofactors, including bicarbonate ion, azide ion, thiocyanate ion, cyanate ion, oxalate ion, malonate ion, glycinate ion, and thioglycolate ion. These reaction were performed at room temperature for thirty minutes. PCR was then set up using the using primer pair GH26/GH27 to produce a 242-mer product (see above). PCR was carried out for 35 cycles. The PCR products were thereafter electrophoresed (agarose) and visualized with ethidium bromide staining.

[5] = Spectroscopic analysis of photochemical treatment (300-700 nm scan); assay type: physicochemical
Description: In this case 0.5 ml of untreated biliverdin in solution (diluted in 50 mM Tris pH 7.8) to a final concentration corresponding to Apeak =0.7) was scanned using a Beckman Spectrophotometer Model DU-50 between 300 and 700 nm. Photochemically treated (1.5 hours and 16 hours of irradiation) biliverdin was similarly diluted and scanned. […] This corresponds to lane 5 in FIG. 3A where no PCR inhibition was observed.
In this case 0.5 ml of untreated bilirubin in solution (diluted in 50 mM Tris, pH 7.8 to a final concentration corresponding to Apeak =0.8) was scanned using a Beckman Spectrophotometer Model DU-50 between 300 and 700 nm. Photochemically treated (20 minutes, 60 minutes and 2.5 hours of irradiation) bilirubin was similarly diluted and scanned. […] With just 20 minutes of irradiation, this peak is reduced; with just 60 minutes of irradiation, this peak is weak; with 2.5 hours, it is eliminated. The 2.5 hour treatment corresponds to lane 8 in FIG. 4A where no PCR inhibition was observed.

[6] = hematin or protoporphyrin only, 500 μM stock

In the case of `C=CC1=C(C)c2cc3[n-]c(cc4[n-]c(cc5nc(cc1n2)C(C)=C5C=C)c(C)c4CCC(=O)O)c(CCC(=O)O)c3C.O.[Fe+2]` [hematin], the PCR inhibition (Taq polymerase [1]; [6]) is reported as “completely inhibited”, the “concentration difference (reacted to unreacted) in PCR inhibition” value (Taq polymerase [1]; sodium borohydride reduction, visual band intensity) is reported as “thirty” and the “concentration at which PCR product is evident” value (Taq polymerase [1]; unreacted hematin, no product at 50, 5, 0.5 μM) is reported as 0.05 µM. For the same compound, the “inhibition of PCR / Taq polymerase” value (Taq polymerase [2]) was “potent inhibitors of Taq polymerase” and the “inhibitory concentration in PCR” value (Taq polymerase [2]) was at least 0.8 µM.
For hemoglobin, the “inhibition of DNA ligase from MEL cells” value [3] is given as “not inhibitory”.
In the case of `C=CC1=C(C)c2cc3[n-]c(cc4[n-]c(cc5nc(cc1n2)C(C)=C5C=C)c(C)c4CCC(=O)O)c(CCC(=O)O)c3C.[Fe+2]` [heme], the “inhibitory concentration in PCR” value (Taq polymerase [2]) is given as 0.8 µM.
For `O=C(O)O` [cofactor, sodium bicarbonate], the PCR product (Taq polymerase [4]) was “No product is visible”.
With `O=C(O)C(=O)O` [Sodium Oxalate (NaO2 CCO2 Na), Sodium Oxalate] the “Effect of cofactors on serum albumin: BSA” value (from here on “Effect of cofactors … BSA”) (Taq polymerase [4]) was “+”.
In the case of `C=CC1=C(C)c2cc3[nH]c(cc4nc(cc5[nH]c(cc1n2)c(C)c5CCC(=O)O)C(CCC(=O)O)=C4C)c(C)c3C=C` [protoporphyrin], the PCR inhibition (Taq polymerase [1]; [6]) is given as “completely inhibited” and the “inhibitory concentration in PCR” value (Taq polymerase [2]) is given as 20 µM.
For `O=C(O)O` [Sodium Bicarbonate (NaHCO3), Sodium Bicarbonate], the “Effect of cofactors … BSA” value (Taq polymerase [4]) was “+” and the “Effect of cofactors on transferrin: Bovine Transferrin” value (“Effect of cofactors on transferrin” for short) (Taq polymerase [4]) was “+”.
With `N#CO` [Sodium Cyanate (NaOCN), Sodium Cyanate] the “Effect of cofactors … BSA” value (Taq polymerase [4]) was “+” and the “Effect of cofactors on transferrin” value (Taq polymerase [4]) was “+”.
For `[N-]=[N+]=[N-]` [Sodium Azide (NaN3), Sodium Azide], the “Effect of cofactors … BSA” value (Taq polymerase [4]; cofactor with BSA) was “+”.
In the case of `NCC(=O)O` [Sodium Glycinate (NaO2 CH2 NH2), Sodium Glycinate], the “Effect of cofactors … BSA” value (Taq polymerase [4]) is reported as “+” and the “Effect of cofactors on transferrin” value (Taq polymerase [4]) is reported as “+”.
In the case of serum albumin, the PCR product (Taq polymerase [4]; serum albumin 25 μg with cofactor (lane 9)) is reported as “weak product band”, the PCR product (Taq polymerase [4]; serum albumin 10 to 250 μg without cofactor) is reported as “No product is visible” and the PCR product (Taq polymerase [4]; serum albumin higher concentrations with cofactor (lanes 10-16)) is reported as “strong product bands”.
For `C=CC1=C(C)/C(=C/c2[nH]c(Cc3[nH]c(/C=C4\NC(=O)C(C)=C4C=C)c(C)c3CCC(=O)O)c(CCC(=O)O)c2C)NC1=O` [bilirubin], the PCR product (Taq polymerase [1]; 400 μM bilirubin, 2.5 hrs irradiation) was “product is visible”, the PCR product (Taq polymerase [1]; 800 μM bilirubin, 3.5 hrs irradiation) was “product is visible” and the PCR product (Taq polymerase [1]; 2 mM bilirubin, 4 hrs irradiation) was “Product is not visible”. For the same compound, the PCR inhibition (Taq polymerase [1]; unreacted bilirubin, 400 μM, 800 μM and 2 mM) was “completely inhibited”, the “absorbance peak at approximately 450 nm after irradiation” value (“absorbance peak at approximately 450 nm” for short) ([5]; 20 minutes of irradiation) was “reduced” and the “absorbance peak at approximately 450 nm” value ([5]; 60 minutes of irradiation) was “weak”. The “absorbance peak at approximately 450 nm” value ([5]; 2.5 hours of irradiation) was “eliminated”.
With `O=C(O)CS` [Sodium Thioglycolate (NaO2 CCH2 SH), Sodium Thioglycolate] the “Effect of cofactors … BSA” value (Taq polymerase [4]) was “+” and the “Effect of cofactors on transferrin” value (Taq polymerase [4]) was “+”.
In the case of `O=C(O)CC(=O)O` [Sodium Malonate (NaO2 CCH2 CO2 Na), Sodium Malonate], the “Effect of cofactors … BSA” value (Taq polymerase [4]) is reported as “+”.
In the case of `N#CS` [Sodium Thiocyanate (NaSCN), Sodium Thiocyanate], the “Effect of cofactors … BSA” value (Taq polymerase [4]) is reported as “+” and the “Effect of cofactors on transferrin” value (Taq polymerase [4]) is reported as “+”.
In the case of `[Fe+2]` [Fe++], the “inhibition of PCR / Taq polymerase” value (Taq polymerase [2]) is given as “inhibit PCR”.
For `[Fe+3]` [Fe^+++], the “inhibition of PCR / Taq polymerase” value (Taq polymerase [2]) is listed as “inhibit PCR”.
With `C=CC1=C(C)/C(=C/C2=NC(=C\c3[nH]c(/C=C4\NC(=O)C(C)=C4C=C)c(C)c3CCC(=O)O)/C(CCC(=O)O)=C2C)NC1=O` [biliverdin] the PCR product (Taq polymerase [1]; biliverdin photochemically treated 16 hrs) was “product is visible”, the PCR inhibition (Taq polymerase [1]; biliverdin unirradiated, 5 μl of 200 μM in 20 μl PCR) was “completely inhibited” and the “absorbance peak at approximately 450 nm” value ([5]; 1.5 hours of irradiation) was “very weak”. The “absorbance peak at approximately 450 nm” value ([5]; 16 hours of irradiation) was “eliminated completely”.
